# Literature values as cited in patent US4894388A, “Glycosidase inhibitors and use thereof” (priority 1988, dated 1990).
# System: human immunodeficiency virus (HIV)
# Conditions: background literature; cited from earlier work
row,SMILES,inhibition of HIV synctium formation and virus replication (in words)
1,"OC[C@H]1NC[C@H](O)[C@@H](O)[C@@H]1O [1-deoxynojirimycin (DNJ), 1-deoxynojirimycin]",found to inhibit human immunodeficiency virus (HIV) synctium formation and virus replication
2,"OCC1NC(CO)C(O)C1O (stereo not drawn) [2,5-dihydroxymethyl-3,4-dihydroxypyrrolidine]",found to inhibit human immunodeficiency virus (HIV) synctium formation and virus replication
3,O[C@H]1[C@H](O)[C@@H](O)CN2CC[C@H](O)[C@H]12 [castanospermine],found to inhibit human immunodeficiency virus (HIV) synctium formation and virus replication
